Results as given in EP3154958B1, “PHOSPHATIDYLINOSITOL 3-KINASE INHIBITORS” (Gilead Sciences, Inc., priority 2014, dated 2015).
Like-named read-outs stand apart in the source and are kept apart here.

How the values were obtained:
Format in all cases: biochemical
PI3Kβ = molecular target: T1, PI3Kβ (Homo sapiens, UniProt P42338); assay: TR-FRET enzymatic activity assay, PI3Kβ
T1 construct: made in house
Protocol: (§1) The compounds of formula (I) were characterized for their enzymatic activity against the PI3K isoforms. The activities were measured using a time-resolved fluorescence resonance energy transfer (TR-FRET) assay.

PI3Kδ = molecular target: T2, PI3Kδ (Homo sapiens, UniProt O00329); assay: TR-FRET enzymatic activity assay, PI3Kδ
T2 construct: made in house
Protocol: as §1

PI3Kγ = molecular target: T3, PI3Kγ (Homo sapiens, UniProt P48736); assay: TR-FRET enzymatic activity assay, PI3Kγ
T3 construct: made in house
Protocol: as §1

[1] = recombinant heterodimeric PI3Kβ 25-50 pM, 2× Km ATP, 30 minutes at 25°C
[2] = recombinant heterodimeric PI3Kδ 25-50 pM, 2× Km ATP, 30 minutes at 25°C
[3] = recombinant heterodimeric PI3Kγ 2 nM, 2× Km ATP, 30 minutes at 25°C

T1 sequence (P42338 whole entry): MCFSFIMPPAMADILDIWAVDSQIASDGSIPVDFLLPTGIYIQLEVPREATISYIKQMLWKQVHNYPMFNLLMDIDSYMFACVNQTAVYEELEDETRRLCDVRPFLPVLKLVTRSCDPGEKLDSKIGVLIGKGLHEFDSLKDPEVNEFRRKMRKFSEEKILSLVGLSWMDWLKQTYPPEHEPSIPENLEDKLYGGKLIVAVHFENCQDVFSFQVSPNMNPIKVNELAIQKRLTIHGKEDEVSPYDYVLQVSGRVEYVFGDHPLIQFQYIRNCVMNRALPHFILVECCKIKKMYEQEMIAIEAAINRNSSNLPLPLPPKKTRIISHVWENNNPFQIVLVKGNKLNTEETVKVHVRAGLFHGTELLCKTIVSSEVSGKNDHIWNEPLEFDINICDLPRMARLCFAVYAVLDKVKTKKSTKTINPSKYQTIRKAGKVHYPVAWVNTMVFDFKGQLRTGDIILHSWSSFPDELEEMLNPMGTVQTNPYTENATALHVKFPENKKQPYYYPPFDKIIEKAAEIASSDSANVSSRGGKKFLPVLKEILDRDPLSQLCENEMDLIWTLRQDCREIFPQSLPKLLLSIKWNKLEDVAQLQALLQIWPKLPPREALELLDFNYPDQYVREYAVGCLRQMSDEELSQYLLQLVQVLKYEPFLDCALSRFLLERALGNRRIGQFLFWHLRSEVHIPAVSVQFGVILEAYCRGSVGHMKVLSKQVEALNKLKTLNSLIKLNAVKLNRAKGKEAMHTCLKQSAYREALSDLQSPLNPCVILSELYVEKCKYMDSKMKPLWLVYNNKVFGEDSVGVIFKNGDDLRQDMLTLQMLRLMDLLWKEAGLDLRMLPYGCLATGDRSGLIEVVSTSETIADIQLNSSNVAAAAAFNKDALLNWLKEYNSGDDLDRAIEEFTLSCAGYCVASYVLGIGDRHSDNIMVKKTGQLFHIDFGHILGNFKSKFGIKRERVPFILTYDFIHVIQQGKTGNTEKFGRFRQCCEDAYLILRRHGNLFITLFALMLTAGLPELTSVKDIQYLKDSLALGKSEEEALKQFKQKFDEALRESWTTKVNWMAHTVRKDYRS
T1 sequence (P27986 whole entry partner): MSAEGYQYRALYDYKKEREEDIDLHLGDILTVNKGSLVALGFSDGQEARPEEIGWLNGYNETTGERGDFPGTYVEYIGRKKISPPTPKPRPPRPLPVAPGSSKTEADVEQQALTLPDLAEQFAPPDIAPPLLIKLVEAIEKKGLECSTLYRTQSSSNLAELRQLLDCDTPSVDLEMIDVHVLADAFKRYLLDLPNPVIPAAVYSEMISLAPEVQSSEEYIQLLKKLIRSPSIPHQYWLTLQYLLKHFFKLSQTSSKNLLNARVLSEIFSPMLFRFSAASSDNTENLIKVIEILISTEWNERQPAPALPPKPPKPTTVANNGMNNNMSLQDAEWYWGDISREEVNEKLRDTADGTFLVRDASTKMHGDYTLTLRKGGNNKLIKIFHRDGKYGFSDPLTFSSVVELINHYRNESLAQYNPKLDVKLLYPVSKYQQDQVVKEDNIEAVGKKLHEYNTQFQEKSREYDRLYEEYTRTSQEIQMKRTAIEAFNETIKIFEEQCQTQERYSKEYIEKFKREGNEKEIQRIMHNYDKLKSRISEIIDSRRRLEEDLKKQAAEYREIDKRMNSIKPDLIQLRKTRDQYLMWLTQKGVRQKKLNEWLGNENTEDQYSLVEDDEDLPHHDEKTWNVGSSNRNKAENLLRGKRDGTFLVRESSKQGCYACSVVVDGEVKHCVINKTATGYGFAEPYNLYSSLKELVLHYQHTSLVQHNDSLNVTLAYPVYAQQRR
T3 sequence (P48736 whole entry): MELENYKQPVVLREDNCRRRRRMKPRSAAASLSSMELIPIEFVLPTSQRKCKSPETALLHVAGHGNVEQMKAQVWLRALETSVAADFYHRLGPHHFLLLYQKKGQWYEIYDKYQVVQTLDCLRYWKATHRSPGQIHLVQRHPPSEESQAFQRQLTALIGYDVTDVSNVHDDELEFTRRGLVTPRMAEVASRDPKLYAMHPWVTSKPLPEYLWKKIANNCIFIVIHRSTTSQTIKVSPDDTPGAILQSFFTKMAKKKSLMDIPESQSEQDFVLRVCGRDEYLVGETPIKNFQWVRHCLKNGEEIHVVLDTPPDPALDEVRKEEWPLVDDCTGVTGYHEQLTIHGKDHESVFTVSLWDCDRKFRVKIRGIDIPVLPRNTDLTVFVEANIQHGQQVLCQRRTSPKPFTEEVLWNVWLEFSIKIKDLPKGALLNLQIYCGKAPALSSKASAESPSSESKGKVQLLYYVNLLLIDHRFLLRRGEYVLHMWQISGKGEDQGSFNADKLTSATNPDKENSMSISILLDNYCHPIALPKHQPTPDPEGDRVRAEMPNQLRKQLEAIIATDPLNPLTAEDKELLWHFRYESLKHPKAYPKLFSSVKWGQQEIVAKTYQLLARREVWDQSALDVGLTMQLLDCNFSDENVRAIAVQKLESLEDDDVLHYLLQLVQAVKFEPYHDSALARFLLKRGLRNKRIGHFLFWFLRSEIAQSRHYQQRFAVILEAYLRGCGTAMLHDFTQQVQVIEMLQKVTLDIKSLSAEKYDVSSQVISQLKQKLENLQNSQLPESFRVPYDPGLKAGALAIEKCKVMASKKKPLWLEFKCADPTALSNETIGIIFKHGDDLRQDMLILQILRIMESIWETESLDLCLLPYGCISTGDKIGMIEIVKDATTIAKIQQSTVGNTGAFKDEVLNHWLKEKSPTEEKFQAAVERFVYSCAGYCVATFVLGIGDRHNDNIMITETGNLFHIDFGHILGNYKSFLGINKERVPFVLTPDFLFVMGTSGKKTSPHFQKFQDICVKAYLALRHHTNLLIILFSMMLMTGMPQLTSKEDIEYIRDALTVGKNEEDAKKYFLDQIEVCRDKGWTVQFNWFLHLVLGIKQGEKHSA
T3 sequence (Q8WYR1 whole entry partner): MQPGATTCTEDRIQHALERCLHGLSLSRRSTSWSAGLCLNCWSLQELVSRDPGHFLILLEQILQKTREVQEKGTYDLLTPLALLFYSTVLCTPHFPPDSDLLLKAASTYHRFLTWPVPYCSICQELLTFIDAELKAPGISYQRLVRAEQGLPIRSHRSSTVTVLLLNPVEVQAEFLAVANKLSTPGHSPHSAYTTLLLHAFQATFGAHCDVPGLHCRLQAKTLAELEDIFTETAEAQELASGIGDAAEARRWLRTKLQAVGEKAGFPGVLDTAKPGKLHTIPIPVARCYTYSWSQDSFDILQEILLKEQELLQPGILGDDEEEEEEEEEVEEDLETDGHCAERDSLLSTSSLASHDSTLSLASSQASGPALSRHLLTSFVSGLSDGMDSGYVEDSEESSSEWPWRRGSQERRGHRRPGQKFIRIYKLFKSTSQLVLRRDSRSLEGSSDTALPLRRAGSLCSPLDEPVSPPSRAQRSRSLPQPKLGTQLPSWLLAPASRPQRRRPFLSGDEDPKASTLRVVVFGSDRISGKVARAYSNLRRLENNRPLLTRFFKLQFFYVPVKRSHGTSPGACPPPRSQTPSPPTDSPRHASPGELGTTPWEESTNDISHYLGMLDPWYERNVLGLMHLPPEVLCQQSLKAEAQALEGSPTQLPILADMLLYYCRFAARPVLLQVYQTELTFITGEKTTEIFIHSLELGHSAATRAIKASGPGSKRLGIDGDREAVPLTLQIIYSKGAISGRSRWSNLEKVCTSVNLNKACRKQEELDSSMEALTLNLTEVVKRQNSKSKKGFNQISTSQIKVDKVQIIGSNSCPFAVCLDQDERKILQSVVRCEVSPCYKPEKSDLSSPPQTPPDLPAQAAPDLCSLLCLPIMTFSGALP
T2 sequence (O00329 whole entry): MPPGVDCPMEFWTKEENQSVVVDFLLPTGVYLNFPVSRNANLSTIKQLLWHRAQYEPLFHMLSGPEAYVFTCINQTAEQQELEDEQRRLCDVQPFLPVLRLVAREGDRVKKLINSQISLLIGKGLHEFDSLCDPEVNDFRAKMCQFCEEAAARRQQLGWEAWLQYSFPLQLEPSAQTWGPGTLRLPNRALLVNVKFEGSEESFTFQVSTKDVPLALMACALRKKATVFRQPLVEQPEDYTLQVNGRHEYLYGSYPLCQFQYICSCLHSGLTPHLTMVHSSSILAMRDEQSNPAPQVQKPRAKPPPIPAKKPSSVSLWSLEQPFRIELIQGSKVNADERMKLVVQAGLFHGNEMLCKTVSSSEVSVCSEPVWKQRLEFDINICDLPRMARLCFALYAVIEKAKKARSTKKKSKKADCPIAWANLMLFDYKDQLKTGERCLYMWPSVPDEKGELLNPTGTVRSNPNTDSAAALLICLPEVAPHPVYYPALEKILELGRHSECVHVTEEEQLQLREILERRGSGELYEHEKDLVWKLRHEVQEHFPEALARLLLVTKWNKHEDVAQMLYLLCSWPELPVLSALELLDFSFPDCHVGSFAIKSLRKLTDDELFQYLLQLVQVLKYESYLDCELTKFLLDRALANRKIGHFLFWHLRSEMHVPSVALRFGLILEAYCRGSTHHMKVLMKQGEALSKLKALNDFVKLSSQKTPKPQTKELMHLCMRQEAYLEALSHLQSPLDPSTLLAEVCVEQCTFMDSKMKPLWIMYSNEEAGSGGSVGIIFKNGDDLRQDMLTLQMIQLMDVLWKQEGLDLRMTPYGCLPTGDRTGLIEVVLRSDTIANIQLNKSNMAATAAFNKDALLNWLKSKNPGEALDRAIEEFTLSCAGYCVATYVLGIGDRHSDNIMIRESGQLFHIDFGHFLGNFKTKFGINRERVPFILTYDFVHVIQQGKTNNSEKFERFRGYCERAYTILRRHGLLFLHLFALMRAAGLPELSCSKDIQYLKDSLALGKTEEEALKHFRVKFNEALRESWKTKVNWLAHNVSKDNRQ
T2 sequence (P27986 whole entry partner): as the sequence (P27986 whole entry partner) above

`C[C@H](NC(=O)c1nc(Cl)c(N)nc1N)c1nc2cccc(Cl)c2c(=O)n1N1CCNCC1` [Compound 33, (S)-3,5-diamino-6-chloro-N-(1-(5-chloro-4-oxo-3-(piperazin-1-yl)-3,4-dihydroquinazolin-2-yl)ethyl)pyrazine-2-carboxamide] gave an IC50 (PI3Kβ; [1]) of 0.004 µM, an IC50 (PI3Kδ; [2]) of 0.014 µM and an IC50 (PI3Kγ; [3]) of 7.4 µM.

With `C[C@H](Nc1ncnc2ccoc12)c1nc2cccc(Cl)c2c(=O)n1N1CCNCC1` [Compound 34, (S)-5-chloro-2-(1-(furo[3,2-d]pyrimidin-4-ylamino)ethyl)-3-(piperazin-1-yl)quinazolin-4(3H)-one] the IC50 (PI3Kβ; [1]) was 0.083 µM, the IC50 (PI3Kδ; [2]) was 0.01 µM and the IC50 (PI3Kγ; [3]) was over 10 µM.

`C[C@H](Nc1ncnc2scc(Cl)c12)c1nc2cccc(Cl)c2c(=O)n1N1CCNCC1` [Compound 35, (S)-5-chloro-2-(1-((5-chlorothieno[2,3-d]pyrimidin-4-yl)amino)ethyl)-3-(piperazin-1-yl)quinazolin-4(3H)-one] gave an IC50 (PI3Kβ; [1]) of 0.57 µM, an IC50 (PI3Kδ; [2]) of 0.093 µM and an IC50 (PI3Kγ; [3]) of over 10 µM.

`C[C@H](NC(=O)c1c(N)nn2cccnc12)c1nc2cccc(Cl)c2c(=O)n1N1CCNCC1` [Compound 36, (S)-2-amino-N-(1-(5-chloro-4-oxo-3-(piperazin-1-yl)-3,4-dihydroquinazolin-2-yl)ethyl)pyrazolo[1,5-a]pyrimidine-3-carboxamide] gave an IC50 (PI3Kβ; [1]) of 0.006 µM, an IC50 (PI3Kδ; [2]) of 0.056 µM and an IC50 (PI3Kγ; [3]) of 5.7 µM.

In the case of `C[C@H](Nc1ncnc(N)c1Cl)c1nc2cccc(Cl)c2c(=O)n1N1CCNCC1` [Compound 37, (S)-2-(1-((6-amino-5-chloropyrimidin-4-yl)amino)ethyl)-5-chloro-3-(piperazin-1-yl)quinazolin-4(3H)-one], the IC50 (PI3Kβ; [1]) is reported as 0.039 µM, the IC50 (PI3Kδ; [2]) is reported as 0.003 µM and the IC50 (PI3Kγ; [3]) is reported as over 10 µM.

`C[C@H](Nc1nc(N)nc(N)c1C#N)c1nc2cccc(Cl)c2c(=O)n1C1CCNCC1(F)F` (stereo partly drawn) [Compound 38, 2,4-diamino-6-(((1S)-1-(5-chloro-3-(3,3-difluoropiperidin-4-yl)-4-oxo-3,4-dihydroquinazolin-2-yl)ethyl)amino)pyrimidine-5-carbonitrile] gave an IC50 (PI3Kβ; [1]) of 0.22 µM, an IC50 (PI3Kδ; [2]) of 0.006 µM and an IC50 (PI3Kγ; [3]) of 1.5 µM.

`C[C@H](Nc1nc(N)nc(N)c1C#N)c1nc2c(F)ccc(F)c2c(=O)n1N1CCNCC1` [Compound 39, (S)-2,4-diamino-6-((1-(5,8-difluoro-4-oxo-3-(piperazin-1-yl)-3,4-dihydroquinazolin-2-yl)ethyl)amino)pyrimidine-5-carbonitrile] showed an IC50 (PI3Kβ; [1]) of 0.004 µM, an IC50 (PI3Kδ; [2]) of 0.003 µM and an IC50 (PI3Kγ; [3]) of 5.4 µM.

`C[C@H](Nc1ncnn2ccnc12)c1nc2c(F)ccc(F)c2c(=O)n1N1CCNCC1` [Compound 40, (S)-5,8-difluoro-2-(1-(imidazo[2,1-f][1,2,4]triazin-4-ylamino)ethyl)-3-(piperazin-1-yl)quinazolin-4(3H)-one] showed an IC50 (PI3Kβ; [1]) of 0.2 µM, an IC50 (PI3Kδ; [2]) of 0.026 µM and an IC50 (PI3Kγ; [3]) of over 10 µM.

`O=c1c2c(F)ccc(F)c2nc([C@@H](Nc2ncnn3ccnc23)C2CC2)n1N1CCNCC1` [Compound 41, (S)-2-(cyclopropyl(imidazo[2,1-f][1,2,4]triazin-4-ylamino)methyl)-5,8-difluoro-3 - (piperazin-1-yl)quinazolin-4(3H)-one] was tested, and the IC50 (PI3Kβ; [1]) was 0.21 µM, the IC50 (PI3Kδ; [2]) was 0.024 µM and the IC50 (PI3Kγ; [3]) was over 10 µM.

Molecule `CC[C@H](Nc1ncnn2ccnc12)c1nc2cccc(Cl)c2c(=O)n1N1CCNCC1` [Compound 42, (S)-5-chloro-2-(1-(imidazo[2,1-f][1,2,4]triazin-4-ylamino)propyl)-3-(piperazin-1-yl)quinazolin-4(3H)-one] has an IC50 (PI3Kβ; [1]) of 0.045 µM, an IC50 (PI3Kδ; [2]) of 0.008 µM and an IC50 (PI3Kγ; [3]) of over 10 µM.

`O=c1c2c(Cl)cccc2nc([C@@H](Nc2ncnn3ccnc23)C2CC2)n1N1CCNCC1` [Compound 43, (S)-5-chloro-2-(cyclopropyl(imidazo[2,1-f][1,2,4]triazin-4-ylamino)methyl)-3-(piperazin-1-yl)quinazolin-4(3H)-one] gave an IC50 (PI3Kβ; [1]) of 0.03 µM, an IC50 (PI3Kδ; [2]) of 0.004 µM and an IC50 (PI3Kγ; [3]) of over 10 µM.

In the case of `CC[C@H](Nc1nc(N)nc(C)c1C#N)c1nc2cccc(Cl)c2c(=O)n1N1CCNCC1` [Compound 44, (S)-2-amino-4-((1-(5-chloro-4-oxo-3-(piperazin-1-yl)-3,4-dihydroquinazolin-2-yl)propyl)amino)-6-methylpyrimidine-5-carbonitrile], the IC50 (PI3Kβ; [1]) is reported as 0.002 µM, the IC50 (PI3Kδ; [2]) is reported as 0.001 µM and the IC50 (PI3Kγ; [3]) is reported as 1.8 µM.

Work on `Cc1nc(N)nc(N[C@H](c2nc3cccc(Cl)c3c(=O)n2N2CCNCC2)C2CC2)c1C#N` [Compound 46, (S)-2-amino-4-(((5-chloro-4-oxo-3-(piperazin-1-yl)-3,4-dihydroquinazolin-2-yl)(cyclopropyl)methyl)amino)-6-methylpyrimidine-5-carbonitrile] yielded an IC50 (PI3Kβ; [1]) of 0.002 µM, an IC50 (PI3Kδ; [2]) of 0.001 µM and an IC50 (PI3Kγ; [3]) of 2.6 µM.

Work on `O=c1c2c(Cl)ccc(F)c2nc([C@@H](Nc2ncnn3ccnc23)C2CC2)n1N1CCNCC1` [Compound 47, (S)-5-chloro-2-(cyclopropyl(imidazo[2,1-f][1,2,4]triazin-4-ylamino)methyl)-8-fluoro-3-(piperazin-1-yl)quinazolin-4(3H)-one] yielded an IC50 (PI3Kβ; [1]) of 0.048 µM, an IC50 (PI3Kδ; [2]) of 0.005 µM and an IC50 (PI3Kγ; [3]) of over 10 µM.

`N#Cc1c(N)nc(N)nc1N[C@H](c1nc2c(F)ccc(Cl)c2c(=O)n1N1CCNCC1)C1CC1` [Compound 48, (S)-2,4-diamino-6-(((5-chloro-8-fluoro-4-oxo-3-(piperazin-1-yl)-3,4-dihydroquinazolin-2-yl)(cyclopropyl)methyl)amino)pyrimidine-5-carbonitrile] was tested, and the IC50 (PI3Kβ; [1]) was 0.003 µM, the IC50 (PI3Kδ; [2]) was 0.001 µM and the IC50 (PI3Kγ; [3]) was 3.3 µM.

For `C[C@H](Nc1ncnc2scnc12)c1nc2c(Cl)ccc(Cl)c2c(=O)n1N1CCNCC1` [Compound 49, (S)-5,8-dichloro-3-(piperazin-1-yl)-2-(1-(thiazolo[5,4-d]pyrimidin-7-ylamino)ethyl)quinazolin-4(3H)-one], the IC50 (PI3Kβ; [1]) was 0.019 µM, the IC50 (PI3Kδ; [2]) was 0.002 µM and the IC50 (PI3Kγ; [3]) was over 10 µM.

`C[C@H](Nc1ncnc2scnc12)c1nc2c(F)ccc(Cl)c2c(=O)n1N1CCNCC1` [Compound 50, (S)-5-chloro-8-fluoro-3-(piperazin-1-yl)-2-(1-(thiazolo[5,4-d]pyrimidin-7-ylamino)ethyl)quinazolin-4(3H)-one] gave an IC50 (PI3Kβ; [1]) of 0.015 µM, an IC50 (PI3Kδ; [2]) of 0.002 µM and an IC50 (PI3Kγ; [3]) of over 10 µM.

For `C[C@H](Nc1ncnc2ccc(Cl)nc12)c1nc2c(Cl)ccc(Cl)c2c(=O)n1N1CCNCC1` [Compound 52, (S)-5,8-dichloro-2-(1-((6-chloropyrido[3,2-d]pyrimidin-4-yl)amino)ethyl)-3-(piperazinl-yl)quinazolin-4(3H)-one], the IC50 (PI3Kβ) was 0.008 µM, the IC50 (PI3Kδ) was 0.003 µM and the IC50 (PI3Kγ) was 3.1 µM.

`C[C@H](Nc1nc(N)nc(N)c1C#N)c1nc2c(F)ccc(Cl)c2c(=O)n1N1CCNCC1` [Compound 54, (S)-2,4-diamino-6-((1-(5-chloro-8-fluoro-4-oxo-3-(piperazin-1-yl)-3,4-dihydroquinazolin-2-yl)ethyl)amino)pyrimidine-5-carbonitrile] gave an IC50 (PI3Kβ; [1]) of 0.004 µM, an IC50 (PI3Kδ; [2]) of 0.002 µM and an IC50 (PI3Kγ; [3]) of 1.9 µM.

With `C[C@H](Nc1ncnc(N)c1C#N)c1nc2cccc(Cl)c2c(=O)n1N1CCNCC1` [Compound 55, (S)-4-amino-6-((1-(5-chloro-4-oxo-3-(piperazin-1-yl)-3,4-dihydroquinazolin-2-yl)ethyl)amino)pyrimidine-5-carbonitrile] the IC50 (PI3Kβ; [1]) was 0.014 µM, the IC50 (PI3Kδ; [2]) was 0.001 µM and the IC50 (PI3Kγ; [3]) was over 10 µM.
